Test results taken from PubChem BioAssay (NCI).
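These data come from cells grown in 96-well plates and exposed to compound for 48 hours at five concentrations. TGI denotes the concentration required for complete inhibition of growth.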 Where a SMILES comes first, the peptide text is derived from it. [ ]: non-standard residue; d: D form. The star is where a group is joined. ξ: configuration not given here. NMeF = CN[C@@H](Cc1ccccc1)C(=O)O; ξNMeV = CNC(C(=O)O)C(C)C; Boc = CC(C)(C)OC(=O)*; OBn = c1ccc(CO*)cc1

How the values were obtained:
Experiment in all cases: DTP human tumour cell line panel, 48 h
SNB-75 CNS = test system: SNB-75 CNS
HT29 colon = test system: HT29 colon
OVCAR-4 ovarian = test system: OVCAR-4 ovarian
SF-295 CNS = test system: SF-295 CNS
U251 CNS = test system: U251 CNS
DMS 273 small cell lung = test system: DMS 273 small cell lung
HCT-116 colon = test system: HCT-116 colon
XF 498 CNS = test system: XF 498 CNS
SK-MEL-28 melanoma = test system: SK-MEL-28 melanoma
A549 NSCLC = test system: A549 NSCLC
LOX IMVI melanoma = test system: LOX IMVI melanoma
MALME-3M melanoma = test system: MALME-3M melanoma
LXFL 529 NSCLC = test system: LXFL 529 NSCLC
IGROV1 ovarian = test system: IGROV1 ovarian
NCI-H226 lung = test system: NCI-H226 lung
ACHN renal = test system: ACHN renal
HOP-18 NSCLC = test system: HOP-18 NSCLC
NCI-H23 lung = test system: NCI-H23 lung
KM12 colon = test system: KM12 colon
HL-60(TB) leukemia = test system: HL-60(TB) leukemia
MOLT-4 leukemia = test system: MOLT-4 leukemia
SR leukemia = test system: SR leukemia
UACC-62 melanoma = test system: UACC-62 melanoma
SNB-78 CNS = test system: SNB-78 CNS
UACC-257 melanoma = test system: UACC-257 melanoma
DMS 114 small cell lung = test system: DMS 114 small cell lung
RPMI-8226 leukemia = test system: RPMI-8226 leukemia
RXF 393 renal = test system: RXF 393 renal
786-0 renal = test system: 786-0 renal
OVCAR-5 ovarian = test system: OVCAR-5 ovarian
SNB-19 CNS = test system: SNB-19 CNS
OVCAR-3 ovarian = test system: OVCAR-3 ovarian
NCI-H460 lung = test system: NCI-H460 lung
A498 renal = test system: A498 renal
EKVX NSCLC = test system: EKVX NSCLC
OVCAR-8 ovarian = test system: OVCAR-8 ovarian
SK-MEL-5 melanoma = test system: SK-MEL-5 melanoma
HCC-2998 colon = test system: HCC-2998 colon
COLO 205 colon = test system: COLO 205 colon
HCT-15 colon = test system: HCT-15 colon
SK-OV-3 ovarian = test system: SK-OV-3 ovarian
HOP-92 NSCLC = test system: HOP-92 NSCLC
K-562 leukemia = test system: K-562 leukemia
CCRF-CEM leukemia = test system: CCRF-CEM leukemia
SK-MEL-2 melanoma = test system: SK-MEL-2 melanoma
SF-268 CNS = test system: SF-268 CNS
M14 melanoma = test system: M14 melanoma
M19-MEL melanoma = test system: M19-MEL melanoma
SN12C renal = test system: SN12C renal
TK-10 renal = test system: TK-10 renal
HOP-62 NSCLC = test system: HOP-62 NSCLC
KM20L2 colon = test system: KM20L2 colon
UO-31 renal = test system: UO-31 renal
NCI-H522 lung = test system: NCI-H522 lung
SF-539 CNS = test system: SF-539 CNS
DLD-1 colon = test system: DLD-1 colon
SW-620 colon = test system: SW-620 colon
RXF-631 renal = test system: RXF-631 renal
CAKI-1 renal = test system: CAKI-1 renal

Compound: CC(C)C(C(=O)N1CCC[C@@H]1C(=O)OCc1ccccc1)N(C)C(=O)C(C(C)C)N(C)C(=O)[C@H](Cc1ccccc1)N(C)C(=O)[C@H](NC(=O)OC(C)(C)C)C(C)C (stereo partly specified) (Boc-[dV][NMeF][ξNMeV][ξNMeV][dP]-OBn)
- TGI (SNB-75 CNS): > 100 µM
- TGI (HT29 colon): > 100 µM
- TGI (OVCAR-4 ovarian): > 100 µM
- TGI (SF-295 CNS): > 100 µM
- TGI (U251 CNS): > 100 µM
- TGI (DMS 273 small cell lung): > 100 µM
- TGI (HCT-116 colon): > 100 µM
- TGI (XF 498 CNS): > 100 µM
- TGI (SK-MEL-28 melanoma): > 100 µM
- TGI (A549 NSCLC): > 100 µM
- TGI (LOX IMVI melanoma): > 100 µM
- TGI (MALME-3M melanoma): > 100 µM
- TGI (LXFL 529 NSCLC): > 100 µM
- TGI (IGROV1 ovarian): > 100 µM
- TGI (NCI-H226 lung): > 100 µM
- TGI (ACHN renal): > 100 µM
- TGI (HOP-18 NSCLC): > 100 µM
- TGI (NCI-H23 lung): > 100 µM
- TGI (KM12 colon): > 100 µM
- TGI (HL-60(TB) leukemia): > 100 µM
- TGI (MOLT-4 leukemia): > 100 µM
- TGI (SR leukemia): > 100 µM
- TGI (UACC-62 melanoma): > 100 µM
- TGI (SNB-78 CNS): > 100 µM
- TGI (UACC-257 melanoma): > 100 µM
- TGI (DMS 114 small cell lung): > 100 µM
- TGI (RPMI-8226 leukemia): > 100 µM
- TGI (RXF 393 renal): > 100 µM
- TGI (786-0 renal): > 100 µM
- TGI (OVCAR-5 ovarian): > 100 µM
- TGI (SNB-19 CNS): > 100 µM
- TGI (OVCAR-3 ovarian): > 100 µM
- TGI (NCI-H460 lung): > 100 µM
- TGI (A498 renal): > 100 µM
- TGI (EKVX NSCLC): > 100 µM
- TGI (OVCAR-8 ovarian): > 100 µM
- TGI (SK-MEL-5 melanoma): > 100 µM
- TGI (HCC-2998 colon): > 100 µM
- TGI (COLO 205 colon): > 100 µM
- TGI (HCT-15 colon): > 100 µM
- TGI (SK-OV-3 ovarian): > 100 µM
- TGI (HOP-92 NSCLC): > 100 µM
- TGI (K-562 leukemia): > 100 µM
- TGI (CCRF-CEM leukemia): > 100 µM
- TGI (SK-MEL-2 melanoma): > 100 µM
- TGI (SF-268 CNS): > 100 µM
- TGI (M14 melanoma): > 100 µM
- TGI (M19-MEL melanoma): > 100 µM
- TGI (SN12C renal): > 100 µM
- TGI (TK-10 renal): > 100 µM
- TGI (HOP-62 NSCLC): > 100 µM
- TGI (KM20L2 colon): > 100 µM
- TGI (UO-31 renal): > 100 µM
- TGI (NCI-H522 lung): > 100 µM
- TGI (SF-539 CNS): > 100 µM
- TGI (DLD-1 colon): > 100 µM
- TGI (SW-620 colon): > 100 µM

Compound: COc1cc(C(C)c2cc3c(cc2OCCCCOc2cc4c(cc2C(C)c2cc(OC)c(OC)c(OC)c2)OCO4)OCO3)cc(OC)c1OC (stereo unspecified)
- TGI (SNB-75 CNS): 69.7 µM
- TGI (HT29 colon): > 100 µM
- TGI (OVCAR-4 ovarian): > 100 µM
- TGI (SF-295 CNS): 91.3 µM
- TGI (U251 CNS): > 100 µM
- TGI (HCT-116 colon): > 100 µM
- TGI (XF 498 CNS): 89.2 µM
- TGI (SK-MEL-28 melanoma): > 100 µM
- TGI (A549 NSCLC): > 100 µM
- TGI (LOX IMVI melanoma): > 100 µM
- TGI (MALME-3M melanoma): > 100 µM
- TGI (LXFL 529 NSCLC): > 100 µM
- TGI (IGROV1 ovarian): > 100 µM
- TGI (NCI-H226 lung): 80.6 µM
- TGI (ACHN renal): > 100 µM
- TGI (NCI-H23 lung): > 100 µM
- TGI (KM12 colon): > 100 µM
- TGI (HL-60(TB) leukemia): > 100 µM
- TGI (MOLT-4 leukemia): > 100 µM
- TGI (SR leukemia): > 100 µM
- TGI (UACC-62 melanoma): > 100 µM
- TGI (SNB-78 CNS): 64 µM
- TGI (UACC-257 melanoma): > 100 µM
- TGI (DMS 114 small cell lung): 45.1 µM
- TGI (RPMI-8226 leukemia): > 100 µM
- TGI (RXF 393 renal): 73.3 µM
- TGI (786-0 renal): > 100 µM
- TGI (OVCAR-5 ovarian): > 100 µM
- TGI (SNB-19 CNS): > 100 µM
- TGI (OVCAR-3 ovarian): 58.2 µM
- TGI (NCI-H460 lung): > 100 µM
- TGI (EKVX NSCLC): > 100 µM
- TGI (OVCAR-8 ovarian): > 100 µM
- TGI (SK-MEL-5 melanoma): > 100 µM
- TGI (HCC-2998 colon): > 100 µM
- TGI (COLO 205 colon): > 100 µM
- TGI (HCT-15 colon): > 100 µM
- TGI (SK-OV-3 ovarian): 91.8 µM
- TGI (K-562 leukemia): > 100 µM
- TGI (CCRF-CEM leukemia): > 100 µM
- TGI (SK-MEL-2 melanoma): > 100 µM
- TGI (SF-268 CNS): > 100 µM
- TGI (RXF-631 renal): > 100 µM
- TGI (M14 melanoma): 99.4 µM
- TGI (M19-MEL melanoma): > 100 µM
- TGI (SN12C renal): > 100 µM
- TGI (TK-10 renal): > 100 µM
- TGI (HOP-62 NSCLC): > 100 µM
- TGI (KM20L2 colon): > 100 µM
- TGI (UO-31 renal): > 100 µM
- TGI (CAKI-1 renal): > 100 µM
- TGI (SF-539 CNS): 55.4 µM
- TGI (DLD-1 colon): > 100 µM
- TGI (SW-620 colon): 96 µM

Compound: COc1cccc(NC(=O)CC(=O)N2NC(C)C(N=Nc3cccc(C(=O)O)c3)C2=O)c1 (stereo unspecified)
- TGI (SNB-75 CNS): > 100 µM
- TGI (HT29 colon): > 100 µM
- TGI (OVCAR-4 ovarian): > 100 µM
- TGI (SF-295 CNS): > 100 µM
- TGI (U251 CNS): > 100 µM
- TGI (DMS 273 small cell lung): > 100 µM
- TGI (HCT-116 colon): > 100 µM
- TGI (SK-MEL-28 melanoma): > 100 µM
- TGI (A549 NSCLC): > 100 µM
- TGI (LOX IMVI melanoma): > 100 µM
- TGI (MALME-3M melanoma): > 100 µM
- TGI (LXFL 529 NSCLC): > 100 µM
- TGI (IGROV1 ovarian): > 100 µM
- TGI (NCI-H226 lung): > 100 µM
- TGI (ACHN renal): > 100 µM
- TGI (HOP-18 NSCLC): > 100 µM
- TGI (NCI-H23 lung): > 100 µM
- TGI (KM12 colon): > 100 µM
- TGI (MOLT-4 leukemia): > 100 µM
- TGI (SR leukemia): > 100 µM
- TGI (UACC-62 melanoma): > 100 µM
- TGI (SNB-78 CNS): > 100 µM
- TGI (UACC-257 melanoma): > 100 µM
- TGI (DMS 114 small cell lung): > 100 µM
- TGI (RPMI-8226 leukemia): > 100 µM
- TGI (786-0 renal): > 100 µM
- TGI (OVCAR-5 ovarian): > 100 µM
- TGI (SNB-19 CNS): > 100 µM
- TGI (OVCAR-3 ovarian): > 100 µM
- TGI (NCI-H460 lung): > 100 µM
- TGI (A498 renal): > 100 µM
- TGI (EKVX NSCLC): > 100 µM
- TGI (OVCAR-8 ovarian): > 100 µM
- TGI (SK-MEL-5 melanoma): > 100 µM
- TGI (HCC-2998 colon): > 100 µM
- TGI (COLO 205 colon): > 100 µM
- TGI (SK-OV-3 ovarian): > 100 µM
- TGI (HOP-92 NSCLC): > 100 µM
- TGI (K-562 leukemia): > 100 µM
- TGI (CCRF-CEM leukemia): > 100 µM
- TGI (SK-MEL-2 melanoma): > 100 µM
- TGI (SF-268 CNS): > 100 µM
- TGI (RXF-631 renal): > 100 µM
- TGI (M14 melanoma): > 100 µM
- TGI (M19-MEL melanoma): > 100 µM
- TGI (SN12C renal): > 100 µM
- TGI (TK-10 renal): > 100 µM
- TGI (HOP-62 NSCLC): > 100 µM
- TGI (KM20L2 colon): > 100 µM
- TGI (UO-31 renal): > 100 µM
- TGI (NCI-H522 lung): > 100 µM
- TGI (CAKI-1 renal): > 100 µM
- TGI (SF-539 CNS): > 100 µM
- TGI (DLD-1 colon): > 100 µM
- TGI (SW-620 colon): > 100 µM
